Assay results reported in paper PMC7287080, “Distinct pre-initiation steps in human mitochondrial translation” (Nature Communications, 2020).

Biological target: T1, mtIF2 (in mtPIC-2, mtSSU-mtIF2-mtIF3) (Homo sapiens, UniProt P46199)
T1 construct: mature mtIF2 residues 38-727, codon-optimized, pET-24b, E. coli Rosetta 2, Ni resin (His-tag implied) and gel filtration; with Translation initiation factor IF-3, mitochondrial
Assay: cryo-EM structure
Type: binding
Details: GTPase G-domain site, preactive state; mtIF2 (1 uM) preincubated with 2.5 mM GDPNP; mtSSU-mtIF3 bound; 25 mM HEPES-KOH pH 7.5, 5 mM Mg(OAc)2, 100 mM KCl; 3.1 A map

SMILES: Nc1nc2c(ncn2[C@@H]2O[C@H](COP(=O)(O)OP(=O)(O)NP(=O)(O)O)[C@@H](O)[C@H]2O)c(=O)[nH]1 [GDPNP]
- cryo-EM structure: The G-domain-bound GDPNP is found in close proximity to the mtIF2-domain III
